{
  "source": "patent US12653860B2",
  "about": "“Compositions and methods for editing beta-globin for treatment of hemaglobinopathies” (Vertex Pharmaceuticals Incorporated, priority 2019, dated 2026)",
  "test_system": "BFP gene encoded in the AAVS1 locus of HEK293 T cells",
  "assay": "BFP to GFP reporter assay of HDR repair (flow cytometry)",
  "type": "cell-based",
  "settings": "for HDR efficiency (improvement): 1.25 μM SCR7 or 10 μM RS-1, any ssODN construct, relative to DMSO alone",
  "protocol": "An in vitro assay was conducted to determine the ability of various inhibitors and enhancers to improve the efficiency of HDR repair in HEK293 T cells. Specifically, a fluorescent reporter-based screening approach was developed to identify molecules that enhance gene-editing by HDR. A reporter system was generated in HEK293 T cells comprising a genomic AAVS1 locus that encoded either a blue fluorescent protein (BFP) or a green fluorescent protein (GFP) within the AAVS1 locus. A gene encoding BFP can be converted to a gene encoding GFP by substitution of cytosine at position 199 to uridine (e.g., a C to U transition at position 199). By introducing a DSB within the BFP gene using a CRISPR/Cas9 gene-editing system, a homology donor DNA encoding the nucleotide substitution can be used to edit the BFP gene to a GFP gene by HDR repair. Thus, a gene edit that induces a C to U transition at position 199 results in a change in cellular fluorescence. A change in the fluorescence of the cell measured by flow cytometry can be used to quantify efficiency of HDR repair. Additionally, the reverse gene edit can be performed for an AAVS1 locus encoding a GFP gene, wherein a GFP can be converted to BFP by substitution of uridine at position 199 to cytosine.\nTo create the reporter system, an AAV-based homology donor DNA encoding either BFP or GFP was created. The AAV-BFP or AAV-GFP donor was flanked by homology arms that were 1000 base pairs in length and expression of BFP or GFP was driven by the MND promoter (e.g., a synthetic promoter that contains the U3 region of a modified Moloney murine leukemia virus long term terminal repeat with myeloproliferative sarcoma virus enhancer and deleted negative control region, SEQ ID NO: 58). The viral DNA was packaged into capsids of adeno-associated virus serotype 6 (AAV6) vector. Either the BFP or GFP donor was introduced using the AAV6 vector into the AAVS1 locus in HEK293 T cells by homologous recombination using CRISPR-Cas9 as follows: purified Cas9 protein was complexed with two different single gRNAs (sgRNAs) targeting the AAVS1 locus at SEQ ID NO: 3 (spacer sequence identified by SEQ ID NO: 4; gRNA obtained from Maxcyte) or SEQ ID NO: 5 (spacer sequence identified by SEQ ID NO: 6; gRNA obtained from Thermo Fisher). Cas9 protein used in the Exemplary section provided herein refers to Cas9 polypeptide derived from S pyogenes (SpCas9), unless indicated otherwise.\nThe Cas9-sgRNA complex was electroporated into the HEK293 T cells using the Lonza Nucleofector program CM-130. Approximately, 2 hours after electroporation, the cells were infected with various viral doses of AAV6 encoding a BFP (SEQ ID NO: 44) or GFP homology donor (SEQ ID NO: 47). One week later, cells were analyzed by flow cytometry to verify integration and expression of BFP or GFP in the AAVS1 locus. HEK293 T cells expressing BFP or GFP were sorted into single cells in 96-well plates. After −2 weeks of growth, DNA extracted from individual cells was analyzed for precise integration of the respective BFP or GFP gene into the AAVS1 locus by long-range PCR. This PCR analysis allowed for determination of whether the BFP/GFP gene was integrated in one or both alleles of the AAVS1 locus.\nTo introduce a gene edit that converts BFP to GFP, cells were electroporated with ribonucleoprotein (RNP) comprised of Cas9 and sgRNA that targets the BFP gene encoded in the AAVS1 locus. The sgRNA targeted a sequence in the BFP gene identified by SEQ ID NO: 7 (sgRNA spacer sequence identified by SEQ ID NO: 8). The sgRNA were prepared using a standard sgRNA cassette specific to SpCas9, as indicated by SEQ ID NO: 2 (wherein a, c, g, u represent 2′ O-methyl phosphorothioate nucleotides; s represents phosphorothioate nucleotides; and A, C, G, U, N represent canonical RNA nucleotides). The gRNAs used in the Exemplary section provided herein were sgRNAs prepared with the SpCas9 sgRNA cassette unless indicated otherwise. […]",
  "data": [
    {"molecule": "O=c1cc(N2CCOCC2)oc2c(-c3cccc4c3sc3ccccc34)cccc12", "note": "[Nu7441]", "values": [
      {"measurement": "HDR efficiency, fold higher", "setting": "2.5 μM Nu7441, each of four ssODN constructs, FIG. 1A", "value": "approximately 3 fold"},
      {"measurement": "HDR efficiency, high vs low concentration", "setting": "2.5 μM vs 0.6 μM Nu7441, FIG. 1B, 1C", "value": "approximately 1.5 fold"},
      {"measurement": "HDR efficiency at higher concentrations", "setting": "concentrations of Nu7441 higher than 2.5 μM", "value": "no further improvement in HDR efficiency"}
    ]},
    {"molecule": "O=C(Nc1ccc(Br)cc1)c1ccc(Br)c(S(=O)(=O)NCc2ccccc2)c1", "note": "[RS-1]", "values": [
      {"measurement": "HDR efficiency (improvement)", "setting": "FIG. 1A", "value": "no improvement in HDR efficiency"}
    ]},
    {"molecule": "O=c1[nH]c(=S)[nH]c(N=Cc2ccccc2)c1N=Cc1ccccc1", "note": "[SCR7]", "values": [
      {"measurement": "HDR efficiency (improvement)", "setting": "FIG. 1A", "value": "no improvement in HDR efficiency"}
    ]},
    {"molecule": "i53: polypeptide inhibitor of 53BP1 (SEQ ID NO: 70), delivered as mRNA (ORF SEQ ID NO: 69)", "values": [
      {"measurement": "HDR efficiency", "setting": "different doses of mRNA encoding i53, ssODNs Hn-91-61 and Ht-39-88, FIG. 1D", "value": "HDR efficiency increased"}
    ]}
  ]
}
